From BindingDB's records for doi:10.1016/j.chembiol.2016.12.011 (Saarland University, 2017) come the findings set out here.

For the test, the target named is Ezrin (Homo sapiens, UniProt P15311). Kind of test: SPR Assay. The note with it: pH 5.5; 25 °C. As for the experimental part:
Recombinant ezrin (Hypermol) was diluted to […] in sodium acetate buffer (pH 5.5, 10 mM) immobilized for 350 s on a CM5 Sensor Chip (Biacore) by standard amine coupling to yield around 10,000 response units. The reference flow cell was prepared exactly as the ligand flow cell, although sodium acetate buffer only (pH 5.5, 10 mM) was used instead of recombinant ezrin. Binding interactions were monitored at 25 °C with a flow rate of […] in HBSEP/1% DMSO as running buffer. Disorazole A was injected at […]. Disorazole Z was injected at […]. The contact time for each compound was 120 s and the dissociation time 500 s. To rule out non-specific binding, a negative control protein was immobilized on a CM5 Sensor Chip (Biacore) by standard amine coupling: BSA (Sigma) was diluted to […] in sodium acetate buffer (pH 4.5, 10 mM) and immobilized for 90 s to yield around 5,000 response units. The reference flow cell was prepared with sodium acetate buffer (pH 4.5).

SMILES strings stand for the structures. pKd: −log10 of the molar value.

Ezrin, sequence (P15311 whole entry): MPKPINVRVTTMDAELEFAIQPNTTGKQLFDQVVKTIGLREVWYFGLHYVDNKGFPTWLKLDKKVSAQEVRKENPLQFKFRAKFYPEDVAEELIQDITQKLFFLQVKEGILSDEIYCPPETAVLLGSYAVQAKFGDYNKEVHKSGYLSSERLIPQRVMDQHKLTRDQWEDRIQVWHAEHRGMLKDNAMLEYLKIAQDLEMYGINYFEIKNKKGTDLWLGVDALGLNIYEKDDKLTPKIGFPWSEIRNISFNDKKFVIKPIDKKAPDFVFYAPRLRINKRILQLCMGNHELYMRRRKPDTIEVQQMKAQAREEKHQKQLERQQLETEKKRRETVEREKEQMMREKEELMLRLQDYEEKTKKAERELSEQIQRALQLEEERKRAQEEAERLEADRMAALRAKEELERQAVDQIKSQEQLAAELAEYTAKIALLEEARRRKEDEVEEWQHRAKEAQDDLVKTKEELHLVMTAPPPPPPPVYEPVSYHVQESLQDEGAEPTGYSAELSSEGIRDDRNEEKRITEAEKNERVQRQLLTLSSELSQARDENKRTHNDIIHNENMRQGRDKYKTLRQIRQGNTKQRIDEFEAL

The molecule `C/C=C/[C@H](O)C(C)(C)[C@@H]1CCC[C@H]2O[C@H]2CC[C@@H]2O[C@@H]2c2nc(co2)C(=O)O[C@H](C(C)(C)[C@@H](O)/C=C/C)C\C=C/C(C)=C\C=C/[C@H](OC)Cc2nc(co2)C(=O)O1` [Disorazole A] showed a pKd of 4.66.

`C/C=C/[C@H](O)C(C)(C(=O)OC)[C@@H]1C\C=C/C=C/C=C/c2nc(co2)C(=O)O[C@H](C(C)(C(=O)OC)[C@@H](O)/C=C/C)C\C=C/C=C/C=C/c2nc(co2)C(=O)O1` (some centres not stated) [Disorazole Z] gave a pKd of 4.13.
